Results as given in publication PMC4215984, “Structure of a Diguanylate Cyclase from Thermotoga maritima: Insights into Activation, Feedback Inhibition and Thermostability” (PLoS ONE, 2014).

Legend:
[1] = target: T1, RocR (Pseudomonas aeruginosa, UniProt Q9HX69); test: hydrolysis of tDGC-bound c-di-GMP to pGpG, gel filtration and mass spectrometry; type: biochemical; conditions: 25 mM Tris-HCl, 300 mM NaCl, 5% glycerol, 10 mM MgCl2, 2 h, room temperature
T1 construct: recombinant RocR phosphodiesterase, expressed and purified as in cited earlier work

[2] = target: T2, tDGC (GGDEF domain of TM1788) (Thermotoga maritima, UniProt Q9X2A8, R233A); test: gel filtration; type: binding; conditions: I-site; co-purified ligand
T2 construct: gene TM_1788; GGDEF domain, residues 82-248 of 248, N-terminal His6 tag, pET28b (salt-bridge mutants in pET22b), E. coli BL21(DE3); dimer with c-di-GMP, monomer without nucleotide

[3] = target: T3, tDGC (GGDEF domain of TM1788) (Thermotoga maritima, UniProt Q9X2A8); test: X-ray crystallography; type: binding; conditions: feedback-inhibitory I-site (158-RxxD-161, secondary R115); co-purified ligand; inactive dimer crystals pH 6.5 (2.27 Å), active-like dimer crystals pH 4.0 (1.9 Å)
T3 construct: gene TM_1788; GGDEF domain, residues 82-248 of 248, N-terminal His6 tag, pET28b (salt-bridge mutants in pET22b), E. coli BL21(DE3); dimer with c-di-GMP, monomer without nucleotide

[4] = target: T3, tDGC (GGDEF domain of TM1788); test: thermal unfolding by circular dichroism at […] nm; type: binding; conditions: 20 mM Tris-HCl pH 8.5, 250 mM NaCl, 5% glycerol, 10 mM MgCl2, 0.8 mg/ml; co-purified ligand at I-site
[5] = target: T4, tDGC (GGDEF domain of TM1788) (Thermotoga maritima, UniProt Q9X2A8, E196A); test: gel filtration; type: binding; conditions: I-site; co-purified ligand
T4 construct: gene TM_1788; GGDEF domain, residues 82-248 of 248, N-terminal His6 tag, pET28b (salt-bridge mutants in pET22b), E. coli BL21(DE3); dimer with c-di-GMP, monomer without nucleotide

[6] = target: T5, tDGC (GGDEF domain of TM1788) (Thermotoga maritima, UniProt Q9X2A8, D177A); test: gel filtration; type: binding; conditions: I-site; co-purified ligand
T5 construct: gene TM_1788; GGDEF domain, residues 82-248 of 248, N-terminal His6 tag, pET28b (salt-bridge mutants in pET22b), E. coli BL21(DE3); dimer with c-di-GMP, monomer without nucleotide
T5 sequence (Q9X2A8 entry or part of it D177A): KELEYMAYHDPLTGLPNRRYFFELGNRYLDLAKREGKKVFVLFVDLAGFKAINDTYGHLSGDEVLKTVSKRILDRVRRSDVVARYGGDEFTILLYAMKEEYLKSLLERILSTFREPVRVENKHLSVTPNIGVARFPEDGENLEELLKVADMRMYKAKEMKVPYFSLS

T3 sequence (Q9X2A8 entry or part of it): as the sequence (Q9X2A8 entry or part of it D177A) above, with A96D counted along it
T4 sequence (Q9X2A8 entry or part of it E196A): as the sequence (Q9X2A8 entry or part of it D177A) above, with A96D, E115A counted along it
T1 sequence (Q9HX69 whole entry): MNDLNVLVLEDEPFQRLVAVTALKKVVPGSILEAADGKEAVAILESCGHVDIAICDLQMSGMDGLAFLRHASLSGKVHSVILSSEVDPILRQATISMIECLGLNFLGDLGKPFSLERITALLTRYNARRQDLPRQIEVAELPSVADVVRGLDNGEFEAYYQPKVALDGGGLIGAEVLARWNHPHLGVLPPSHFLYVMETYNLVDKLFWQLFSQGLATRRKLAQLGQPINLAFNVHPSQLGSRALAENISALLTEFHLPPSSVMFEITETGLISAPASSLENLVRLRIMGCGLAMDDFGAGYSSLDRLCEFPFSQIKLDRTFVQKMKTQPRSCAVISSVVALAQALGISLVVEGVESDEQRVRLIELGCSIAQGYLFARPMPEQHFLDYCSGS
T2 sequence (Q9X2A8 entry or part of it R233A): as the sequence (Q9X2A8 entry or part of it D177A) above, with A96D, R152A counted along it

Nc1nc2c(ncn2[C@@H]2O[C@@H]3COP(=O)(O)O[C@H]4[C@@H](O)[C@H](n5cnc6c(=O)[nH]c(N)nc65)O[C@@H]4COP(=O)(O)O[C@H]3[C@H]2O)c(=O)[nH]1 [c-di-GMP]
hydrolysis of tDGC-bound c-di-GMP to pGpG, gel filtration and mass spectrometry [1]: Following incubation of the wild type tDGC bound to c-di-GMP with RocR | gel filtration [2]: The three mutants eluted as dimers in gel filtration, indicating that c-di-GMP is bound | structure [3]: The wild type tDGC protein co-purifies with c-di-GMP and co-crystallizes without any extraneous addition of ligand | Tm (c-di-GMP-bound dimer; nucleotide-free monomer 85.5) [4]: 85.0 °C | gel filtration [5]: The three mutants eluted as dimers in gel filtration, indicating that c-di-GMP is bound | gel filtration [6]: The three mutants eluted as dimers in gel filtration, indicating that c-di-GMP is bound
